Laboratory results as given in US9393271B2, “GHRH agonists for islet cell transplantation and function and the treatment of diabetes” (UNIVERSITY OF MIAMI, priority 2012, dated 2016).
Non-standard residues stand in square brackets, D forms with d. Residues, ends and D or L forms follow the SMILES beside them. *: point of attachment. Desaminotyrosyl = O=C(CCc1ccc(O)cc1)*; NMeY = CN[C@@H](Cc1ccc(O)cc1)C(=O)O; Nle = CCCC[C@H](N)C(=O)O; Orn = NCCC[C@H](N)C(=O)O; dAbu = CC[C@@H](N)C(=O)O; Abu = CC[C@H](N)C(=O)O; Ava = NCCCCC(=O)O; GABA = NCCCC(=O)O

Biological target: T1, GHRH receptor (human pituitary membrane homogenates) (Homo sapiens, UniProt Q02643)
T1 sequence (Q02643 23-423): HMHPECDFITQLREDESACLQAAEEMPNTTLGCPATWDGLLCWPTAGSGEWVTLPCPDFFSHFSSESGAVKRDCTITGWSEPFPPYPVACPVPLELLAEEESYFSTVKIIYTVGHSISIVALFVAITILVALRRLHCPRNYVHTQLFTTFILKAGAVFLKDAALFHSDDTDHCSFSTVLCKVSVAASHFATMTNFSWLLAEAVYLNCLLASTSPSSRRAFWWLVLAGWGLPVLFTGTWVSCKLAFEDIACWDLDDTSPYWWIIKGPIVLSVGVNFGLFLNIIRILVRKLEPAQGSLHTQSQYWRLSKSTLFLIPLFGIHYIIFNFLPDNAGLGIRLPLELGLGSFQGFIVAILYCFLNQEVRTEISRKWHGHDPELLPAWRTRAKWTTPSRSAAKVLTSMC
Test: GHRH receptor binding, ligand competition with 125I-labeled JV-1-42 (Table 7)
Set-up: Normal human pituitaries were purchased from the National Hormone and Peptide Program; tissue National Hormone and Peptide Program (A. F. Parlow, Harbor-UCLA Medical Center, Torrance, Calif.); host or cells: normal human pituitary, membrane fraction / homogenate
Settings: JI-38 = 1

SMILES | Relative affinitiy (Binding potency) vs JI-38
CCCC[C@H](NC(=O)[C@@H](NC(=O)[C@H](CC(=O)O)NC(=O)[C@H](CCC(N)=O)NC(=O)[C@H](CC(C)C)NC(=O)[C@H](CC(C)C)NC(=O)[C@H](CCCN)NC(=O)[C@H](CCCNC(=N)N)NC(=O)[C@H](C)NC(=O)[C@H](CO)NC(=O)[C@H](CC(C)C)NC(=O)[C@H](CCC(N)=O)NC(=O)[C@H](CC)NC(=O)[C@H](CC(C)C)NC(=O)[C@@H](NC(=O)[C@H](CCCN)NC(=O)[C@H](CCCNC(=N)N)NC(=O)[C@H](Cc1ccc(O)cc1)NC(=O)[C@H](CO)NC(=O)[C@H](CCC(N)=O)NC(=O)[C@@H](NC(=O)[C@H](Cc1ccccc1)NC(=O)[C@@H](NC(=O)[C@H](C)NC(=O)[C@H](CC(=O)O)NC(=O)[C@H](C)NC(=O)CCc1ccc(O)cc1)[C@@H](C)CC)[C@@H](C)O)C(C)C)[C@@H](C)CC)C(=O)N[C@@H](CC(=O)O)C(=O)N[C@@H](CCCNC(=N)N)C(=O)NCCCCC(N)=O [Peptide P-22327, [Dat^1, Gln^8, Orn^12, Abu^15, Orn^21, Nle^27, Asp^28, Apa^30]hGHRH(1-30)NH2] (Desaminotyrosyl-ADAIFTQSYR[Orn]VL[Abu]QLSAR[Orn]LLQDI[Nle]DR[Ava]-NH2) | 2.18
CCCC[C@H](NC(=O)[C@@H](NC(=O)[C@H](CC(=O)O)NC(=O)[C@H](CCC(N)=O)NC(=O)[C@H](CC(C)C)NC(=O)[C@H](CC(C)C)NC(=O)[C@H](CCCN)NC(=O)[C@H](CCCNC(=N)N)NC(=O)[C@H](C)NC(=O)[C@H](CO)NC(=O)[C@H](CC(C)C)NC(=O)[C@H](CCC(N)=O)NC(=O)[C@H](CC)NC(=O)[C@H](CC(C)C)NC(=O)[C@@H](NC(=O)[C@H](CCCN)NC(=O)[C@H](CCCNC(=N)N)NC(=O)[C@H](Cc1ccc(O)cc1)NC(=O)[C@H](CO)NC(=O)[C@H](CC(N)=O)NC(=O)[C@@H](NC(=O)[C@H](Cc1ccccc1)NC(=O)[C@@H](NC(=O)[C@H](C)NC(=O)[C@H](CC(=O)O)NC(=O)[C@H](CC)NC(=O)[C@H](Cc1ccc(O)cc1)NC)[C@@H](C)CC)[C@@H](C)O)C(C)C)[C@@H](C)CC)C(=O)N[C@@H](CO)C(=O)N[C@@H](CCCNC(=N)N)C(=O)NCCCC(N)=O [Peptide P-25503, [N—Me-Tyr^1, Abu^2, Orn^12, Abu^15, Orn^21, Nle^27, Gab^30]hGHRH(1-30)NH2] (H-[NMeY][Abu]DAIFTNSYR[Orn]VL[Abu]QLSAR[Orn]LLQDI[Nle]SR[GABA]-NH2) | 3.67
CCCC[C@H](NC(=O)[C@@H](NC(=O)[C@H](CC(=O)O)NC(=O)[C@H](CCC(N)=O)NC(=O)[C@H](CC(C)C)NC(=O)[C@H](CC(C)C)NC(=O)[C@H](CCCN)NC(=O)[C@H](CCCNC(=N)N)NC(=O)[C@H](C)NC(=O)[C@H](CO)NC(=O)[C@H](CC(C)C)NC(=O)[C@H](CCC(N)=O)NC(=O)[C@H](CC)NC(=O)[C@H](CC(C)C)NC(=O)[C@@H](NC(=O)[C@H](CCCN)NC(=O)[C@H](CCCNC(=N)N)NC(=O)[C@H](Cc1ccc(O)cc1)NC(=O)[C@H](CO)NC(=O)[C@H](CC(N)=O)NC(=O)[C@@H](NC(=O)[C@H](Cc1ccccc1)NC(=O)[C@@H](NC(=O)[C@H](C)NC(=O)[C@H](CC(=O)O)NC(=O)[C@@H](CC)NC(=O)CCc1ccc(O)cc1)[C@@H](C)CC)[C@@H](C)O)C(C)C)[C@@H](C)CC)C(=O)N[C@@H](CO)C(=O)N[C@@H](CCCNC(=N)N)C(=O)NCCCC(N)=O [Peptide P-25504, [Dat^1, D-Abu^2, Orn^12, Abu^15, Orn^21, Nle^27, Gab^30]hGHRH(1-30)NH2] (Desaminotyrosyl-[dAbu]DAIFTNSYR[Orn]VL[Abu]QLSAR[Orn]LLQDI[Nle]SR[GABA]-NH2) | 3.02
CCCC[C@H](NC(=O)[C@@H](NC(=O)[C@H](CC(=O)O)NC(=O)[C@H](CCC(N)=O)NC(=O)[C@H](CC(C)C)NC(=O)[C@H](CC(C)C)NC(=O)[C@H](CCCN)NC(=O)[C@H](CCCNC(=N)N)NC(=O)[C@H](C)NC(=O)[C@H](CO)NC(=O)[C@H](CC(C)C)NC(=O)[C@H](CCC(N)=O)NC(=O)[C@H](CC)NC(=O)[C@H](CC(C)C)NC(=O)[C@@H](NC(=O)[C@H](CCCN)NC(=O)[C@H](CCCNC(=N)N)NC(=O)[C@H](Cc1ccc(O)cc1)NC(=O)[C@H](CO)NC(=O)[C@H](CC(N)=O)NC(=O)[C@@H](NC(=O)[C@H](Cc1ccccc1)NC(=O)[C@@H](NC(=O)[C@H](C)NC(=O)[C@H](CC(=O)O)NC(=O)[C@@H](C)NC(=O)CCc1ccc(O)cc1)[C@@H](C)CC)[C@@H](C)O)C(C)C)[C@@H](C)CC)C(=O)N[C@@H](CC(=O)O)C(=O)N[C@@H](CCCNC(=N)N)C(=O)NC [Peptide P-27400, [Dat^1, D-Ala^2, Orn^12, Abu^15, Orn^21, Nle^27, Asp^28]hGHRH(1-29)NH—CH3] (Desaminotyrosyl-[dA]DAIFTNSYR[Orn]VL[Abu]QLSAR[Orn]LLQDI[Nle]DR-NHMe) | 1.30
CCCC[C@H](NC(=O)[C@@H](NC(=O)[C@H](CC(=O)O)NC(=O)[C@H](CCC(N)=O)NC(=O)[C@H](CC(C)C)NC(=O)[C@H](CC(C)C)NC(=O)[C@H](CCCN)NC(=O)[C@H](CCCNC(=N)N)NC(=O)[C@H](C)NC(=O)[C@H](CO)NC(=O)[C@H](CC(C)C)NC(=O)[C@H](CCC(N)=O)NC(=O)[C@H](CC)NC(=O)[C@H](CC(C)C)NC(=O)[C@@H](NC(=O)[C@H](CCCN)NC(=O)[C@H](CCCNC(=N)N)NC(=O)[C@H](Cc1ccc(O)cc1)NC(=O)[C@H](CO)NC(=O)[C@H](CCC(N)=O)NC(=O)[C@@H](NC(=O)[C@H](Cc1ccccc1)NC(=O)[C@@H](NC(=O)[C@H](C)NC(=O)[C@H](CC(=O)O)NC(=O)[C@@H](C)NC(=O)CCc1ccc(O)cc1)[C@@H](C)CC)[C@@H](C)O)C(C)C)[C@@H](C)CC)C(=O)N[C@@H](CC(=O)O)C(=O)N[C@H](CCCNC(=N)N)C(=O)NC [Peptide P-27401, [Dat^1, D-Ala^2, Gln^8, Orn^12, Abu^15, Orn^21, Nle^27, Asp^28, D-Arg^29]hGHRH(1-29)NH—CH3] (Desaminotyrosyl-[dA]DAIFTQSYR[Orn]VL[Abu]QLSAR[Orn]LLQDI[Nle]D[dR]-NHMe) | 1.59
CCCC[C@H](NC(=O)[C@@H](NC(=O)[C@H](CC(=O)O)NC(=O)[C@H](CCC(N)=O)NC(=O)[C@H](CC(C)C)NC(=O)[C@H](CC(C)C)NC(=O)[C@H](CCCN)NC(=O)[C@H](CCCNC(=N)N)NC(=O)[C@H](C)NC(=O)[C@H](CO)NC(=O)[C@H](CC(C)C)NC(=O)[C@H](CCC(N)=O)NC(=O)[C@H](CC)NC(=O)[C@H](CC(C)C)NC(=O)[C@@H](NC(=O)[C@H](CCCN)NC(=O)[C@H](CCCNC(=N)N)NC(=O)[C@H](Cc1ccc(O)cc1)NC(=O)[C@H](CO)NC(=O)[C@H](CCC(N)=O)NC(=O)[C@@H](NC(=O)[C@H](Cc1ccccc1)NC(=O)[C@@H](NC(=O)[C@H](C)NC(=O)[C@H](CC(=O)O)NC(=O)[C@H](C)NC(=O)[C@H](Cc1ccc(O)cc1)NC)[C@@H](C)CC)[C@@H](C)O)C(C)C)[C@@H](C)CC)C(=O)N[C@@H](CO)C(=O)N[C@@H](CCCNC(=N)N)C(=O)NC [Peptide P-27405, [N—Me-Tyr^1, Gln^8, Orn^12, Abu^15, Orn^21, Nle^27]hGHRH(1-29)NH—CH3] (H-[NMeY]ADAIFTQSYR[Orn]VL[Abu]QLSAR[Orn]LLQDI[Nle]SR-NHMe) | 4.03
CCCC[C@H](NC(=O)[C@@H](NC(=O)[C@H](CC(=O)O)NC(=O)[C@H](CCC(N)=O)NC(=O)[C@H](CC(C)C)NC(=O)[C@H](CC(C)C)NC(=O)[C@H](CCCN)NC(=O)[C@H](CCCNC(=N)N)NC(=O)[C@H](C)NC(=O)[C@H](CO)NC(=O)[C@H](CC(C)C)NC(=O)[C@H](CCC(N)=O)NC(=O)[C@H](CC)NC(=O)[C@H](CC(C)C)NC(=O)[C@@H](NC(=O)[C@H](CCCN)NC(=O)[C@H](CCCNC(=N)N)NC(=O)[C@H](Cc1ccc(O)cc1)NC(=O)[C@H](CO)NC(=O)[C@H](CCC(N)=O)NC(=O)[C@@H](NC(=O)[C@H](Cc1ccccc1)NC(=O)[C@@H](NC(=O)[C@H](C)NC(=O)[C@H](CC(=O)O)NC(=O)[C@H](C)NC(=O)[C@H](Cc1ccc(O)cc1)NC)[C@@H](C)CC)[C@@H](C)O)C(C)C)[C@@H](C)CC)C(=O)N[C@@H](CC(=O)O)C(=O)N[C@@H](CCCNC(=N)N)C(=O)NC [Peptide P-27406, [N—Me-Tyr^1, Gln^8, Orn^12, Abu^15, Orn^21, Nle^27, Asp^28]hGHRH(1-29)NH—CH3] (H-[NMeY]ADAIFTQSYR[Orn]VL[Abu]QLSAR[Orn]LLQDI[Nle]DR-NHMe) | 14.5
CCCC[C@H](NC(=O)[C@@H](NC(=O)[C@H](CC(=O)O)NC(=O)[C@H](CCC(N)=O)NC(=O)[C@H](CC(C)C)NC(=O)[C@H](CC(C)C)NC(=O)[C@H](CCCN)NC(=O)[C@H](CCCNC(=N)N)NC(=O)[C@H](C)NC(=O)[C@H](CO)NC(=O)[C@H](CC(C)C)NC(=O)[C@H](CCC(N)=O)NC(=O)[C@H](CC)NC(=O)[C@H](CC(C)C)NC(=O)[C@@H](NC(=O)[C@H](CCCN)NC(=O)[C@H](CCCNC(=N)N)NC(=O)[C@H](Cc1ccc(O)cc1)NC(=O)[C@H](CO)NC(=O)[C@H](CCC(N)=O)NC(=O)[C@@H](NC(=O)[C@H](Cc1ccccc1)NC(=O)[C@@H](NC(=O)[C@H](C)NC(=O)[C@H](CC(=O)O)NC(=O)[C@H](C)NC(=O)CCc1ccc(O)cc1)[C@@H](C)CC)[C@@H](C)O)C(C)C)[C@@H](C)CC)C(=O)N[C@@H](CC(=O)O)C(=O)N[C@@H](CCCNC(=N)N)C(=O)NC [Peptide P-27407, [Dat^1, Gln^8, Orn^12, Abu^15, Orn^21, Nle^27, Asp^28]hGHRH(1-29)NH—CH3] (Desaminotyrosyl-ADAIFTQSYR[Orn]VL[Abu]QLSAR[Orn]LLQDI[Nle]DR-NHMe) | 1.45
